# Source: ChEMBL document CHEMBL4364299, “Discovery of a Potent Kelch-Like ECH-Associated Protein 1-Nuclear Factor Erythroid 2-Related Factor 2 (Keap1-Nrf2) Protein-Protein Interaction Inhibitor with Natural Proline Structure as a Cytoprotective Agent against Acetaminophen-Induced Hepatotoxicity” (J Med Chem, 2019)
# The source made the active and inactive calls. The rule behind the calls is not given here.
# Experiments:
# Mus musculus [1] = experiment: Protection against APAP-induced hepatotoxicity in C57BL/6 mouse assessed as decrease in TNFalpha production at 10 mg/kg, ip treated 2 hrs prior to 22 hrs starvation followed by APAP challenge and measured after 6 hrs; assay type: functional, organism-based
# [2] = biological target: T1, Nuclear factor erythroid 2-related factor 2 (Homo sapiens) (UniProt Q16236); experiment: Activation of Nrf2 in human L02 cells assessed as increase in GCLM mRNA expression at 10 uM measured after 8 to 24 hrs by trizol reagent based qRT-PCR analysis; assay type: cell-based
# T1 sequence (whole entry): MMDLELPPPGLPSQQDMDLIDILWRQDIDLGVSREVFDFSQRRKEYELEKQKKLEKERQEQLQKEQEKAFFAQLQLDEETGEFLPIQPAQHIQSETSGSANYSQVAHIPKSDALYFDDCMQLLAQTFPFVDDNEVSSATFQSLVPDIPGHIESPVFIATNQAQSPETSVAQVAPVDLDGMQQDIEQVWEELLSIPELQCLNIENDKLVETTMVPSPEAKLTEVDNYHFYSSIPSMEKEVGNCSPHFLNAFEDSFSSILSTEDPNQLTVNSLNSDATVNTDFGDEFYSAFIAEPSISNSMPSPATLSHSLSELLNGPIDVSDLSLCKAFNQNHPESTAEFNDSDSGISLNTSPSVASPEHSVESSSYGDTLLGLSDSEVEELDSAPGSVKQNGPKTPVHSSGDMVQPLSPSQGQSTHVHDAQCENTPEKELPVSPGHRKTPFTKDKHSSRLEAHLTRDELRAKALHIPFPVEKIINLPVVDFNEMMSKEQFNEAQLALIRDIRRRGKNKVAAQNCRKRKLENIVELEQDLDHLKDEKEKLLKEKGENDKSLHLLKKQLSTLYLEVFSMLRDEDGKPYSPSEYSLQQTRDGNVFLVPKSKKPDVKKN
# [3] = biological target: T1, Nuclear factor erythroid 2-related factor 2 (Homo sapiens); experiment: Activation of Nrf2 in human L02 cells assessed as increase in HO-1 mRNA expression at 10 uM measured after 8 to 24 hrs by trizol reagent based qRT-PCR analysis; assay type: cell-based
# L02 [4] = experiment: Cytoprotective activity against APAP-induced oxidative stress in human L02 cells assessed as decrease in ALT level at 5 to 10 uM preincubated for 12 hrs followed by APAP stimulation and measured after 24 hrs; assay type: functional, cell-based
# [5] = biological target: T1, Nuclear factor erythroid 2-related factor 2 (Homo sapiens); experiment: Activation of Nrf2 in human L02 cells assessed as increase in NEFL2L expression measured after 12 hrs by Western blot analysis; assay type: cell-based
# Mus musculus [6] = experiment: Protection against APAP-induced hepatotoxicity in C57BL/6 mouse assessed as decrease in GCLM expression in liver at 10 to 40 mg/kg, ip treated 2 hrs prior to 22 hrs starvation followed by APAP challenge and measured after 6 hrs by Dako/Mayer's hematoxylin staining-based immunohistochemical analysis; assay type: functional, organism-based
# Mus musculus [7] = experiment: Protection against APAP-induced hepatotoxicity in C57BL/6 mouse assessed as decrease in disease score at 10 to 40 mg/kg, ip treated 2 hrs prior to 22 hrs starvation followed by APAP challenge and measured after 6 hrs by H and E staining-based light microscopic analysis; assay type: functional, organism-based
# [8] = biological target: T1, Nuclear factor erythroid 2-related factor 2 (Homo sapiens); experiment: Activation of Nrf2 in human L02 cells assessed as increase in GCLM expression at 10 uM measured after 4 to 72 hrs hrs by Western blot analysis; assay type: cell-based
# L02 [9] = experiment: Upregulation of NEFL2L expression in human L02 cells harboring Nrf2 siRNA at 10 uM measured after 10 hrs by Western blot analysis; assay type: functional, cell-based
# L02 [10] = experiment: Upregulation of HO-1 mRNA expression in human L02 cells harboring Nrf2 siRNA at 10 uM measured after 10 hrs by trizol reagent based qRT-PCR analysis; assay type: functional, cell-based
# Mus musculus [11] = experiment: Protection against APAP-induced hepatotoxicity in C57BL/6 mouse assessed as destruction of liver structure at 10 to 40 mg/kg, ip treated 2 hrs prior to 22 hrs starvation followed by APAP challenge and measured after 6 hrs by H and E staining-based light microscopic analysis; assay type: functional, organism-based
compound,measurement,setting,value
COc1ccc(S(=O)(=O)N(CC(=O)O)c2ccc(N3CCC[C@H]3C(=O)O)c3ccccc23)cc1,Activity,Mus musculus [1],Active
same,Activity,[2],Active
same,Activity,[3],Active
same,Activity,L02 [4],Active
same,Activity,[5],Dose-dependent effect
same,Activity,Mus musculus [6],Active
same,Activity,Mus musculus [7],Active
same,Activity,[8],Active
same,Activity,L02 [9],inactive
same,Activity,L02 [10],inactive
same,Activity,Mus musculus [11],Active
